# Test results: US20240352016A1, “A CYCLIN-DEPENDENT KINASE INHIBITOR” (TAIZHOU EOC PHARMA CO., LTD., priority 2021, published 2024)
# Structures can show the parent of a compound that is named as a salt.
# Target: T1, CDK7/Cyclin H/MAT1 (Homo sapiens, UniProt P50613)
# T1 construct: made in house; host or cells: insect cell
# Assay: CDK kinase activity mobility shift assay (MSA)
# Format: biochemical
# Settings: not given
# Procedure: Human CDKs, cyclins and other partner proteins were expressed in insect cell, purified individually, reconstituted and then purified to homogeneity before being used for kinase activity assay.
# Kinase activity of CDKs were determined by mobility shift assay (MSA), in which the formation of a phosphorylated fluorescence-labelled peptide in reaction mixture was monitored through capillary electrophoresis in a microfluidic environment. […] The mixtures were incubated at 27° C. for 40 min before being quenched with 4 μl 80 mM EDTA, then read on a LabChip EZ Reader II (Caliper Life Science). IC50 of compound for CDKs was calculated by Prism (GraphPad) using a four-parameter nonlinear curve fit.
# T1 sequence (P50613 whole entry): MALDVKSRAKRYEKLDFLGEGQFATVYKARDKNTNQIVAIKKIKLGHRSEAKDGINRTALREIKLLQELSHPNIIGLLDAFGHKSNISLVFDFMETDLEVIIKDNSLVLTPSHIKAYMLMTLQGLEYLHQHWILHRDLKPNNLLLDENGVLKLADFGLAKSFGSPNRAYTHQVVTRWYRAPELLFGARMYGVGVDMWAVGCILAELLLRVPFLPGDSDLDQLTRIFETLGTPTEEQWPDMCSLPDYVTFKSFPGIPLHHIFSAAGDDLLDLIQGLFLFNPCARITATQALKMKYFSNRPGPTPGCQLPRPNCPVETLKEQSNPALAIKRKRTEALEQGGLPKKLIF
# T1 sequence (P51946 whole entry partner): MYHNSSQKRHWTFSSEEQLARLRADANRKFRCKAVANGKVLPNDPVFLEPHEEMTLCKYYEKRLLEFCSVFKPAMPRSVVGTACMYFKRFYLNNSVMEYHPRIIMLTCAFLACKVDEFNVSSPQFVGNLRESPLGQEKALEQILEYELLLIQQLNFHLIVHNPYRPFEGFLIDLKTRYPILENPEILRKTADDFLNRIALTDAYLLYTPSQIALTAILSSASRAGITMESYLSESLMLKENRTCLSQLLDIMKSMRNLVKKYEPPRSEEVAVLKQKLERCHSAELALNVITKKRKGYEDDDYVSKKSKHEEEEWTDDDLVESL
# T1 sequence (P51948 whole entry partner): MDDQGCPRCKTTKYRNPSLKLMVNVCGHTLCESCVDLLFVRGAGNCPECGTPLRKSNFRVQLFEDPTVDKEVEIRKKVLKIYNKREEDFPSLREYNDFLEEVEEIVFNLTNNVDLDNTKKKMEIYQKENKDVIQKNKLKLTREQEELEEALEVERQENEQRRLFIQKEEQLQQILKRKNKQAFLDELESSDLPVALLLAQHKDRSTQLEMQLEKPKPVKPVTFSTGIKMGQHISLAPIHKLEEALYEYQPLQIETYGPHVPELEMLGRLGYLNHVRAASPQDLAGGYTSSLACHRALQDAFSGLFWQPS
row,Structure (SMILES),IC50 [nM]
1,"CC(C)n1cnc2c(NCc3ccccc3-n3cccn3)nc(N3CCNCC3)nc21 [Compound I-28, N-(2-(1H-pyrazol-1-yl)benzyl)-9-isopropyl-2-(piperazin-1-yl)-9H-purin-6-amine]",< 100

# Same assay, conditions: The CDK may be CDK7; mobility shift assay, 2 mM ATP, 3 nM CDK/Cyclin, 27° C. for 40 min; read-out: IC50 (CDK inhibition)
row,Structure (SMILES),IC50 [nM]
1,"c1ccc(-n2cccn2)c(CNc2nc(N3CCNCC3)nc3c2ncn3C2CCCC2)c1 [Compound I-27, N-(2-(1H-pyrazol-1-yl)benzyl)-9-cyclopentyl-2-(piperazin-1-yl)-9H-purin-6-amine]",< 100
2,"CC(C)n1cnc2c(NCc3ccccc3-n3cccn3)nc(N3CCC(C(=O)N(C)C)CC3)nc21 [Compound I-15, 1-(6-((2-(1H-pyrazol-1-yl)benzyl)amino)-9-isopropyl-9H-purin-2-yl)-N,N-dimethylpiperidine-4-carboxamide]",> 1000
3,"CC(C)n1cnc2c(NCc3ccccc3-n3cccn3)nc(N[C@H]3CC[C@H](O)CC3)nc21 [Compound I-39, (1R,4R)-4-((6-((2-(1H-pyrazol-1-yl)benzyl)amino)-9-isopropyl-9H-purin-2-yl)amino)cyclohexan-1-ol]",500 to 1000
4,"CC(C)n1cnc2c(NCc3ccccc3-n3cccn3)nc(N3CCC[C@@H](N)C3)nc21 [Compound I-11, (R)—N-(2-(1H-pyrazol-1-yl)benzyl)-2-(3-aminopiperidin-1-yl)-9-isopropyl-9H-purin-6-amine]",< 100
5,"CC(C)n1cnc2c(NCc3ccccc3-n3cccn3)nc(N3CCC(O)CC3)nc21 [Compound I-37, 1-(6-((2-(1H-pyrazol-1-yl)benzyl)amino)-9-isopropyl-9H-purin-2-yl)piperidin-4-ol]",100 to 500
6,"CC(C)n1cnc2c(NCc3ccccc3-n3cccn3)nc(NC3CCNCC3)nc21 [Compound I-30, N6-(2-(1H-pyrazol-1-yl)benzyl)-9-isopropyl-N2-(piperidin-4-yl)-9H-purine-2,6-diamine hydrochloride]",100 to 500
7,"CC(C)n1cnc2c(NCc3ccccc3-n3cccn3)nc(NC3CN4CCC3CC4)nc21 (stereo not shown) [Compound I-33, N6-(2-(1H-pyrazol-1-yl)benzyl)-9-isopropyl-N2-(quinuclidin-3-yl)-9H-purine-2,6-diamine]",100 to 500
8,"CC(C)n1cnc2c(NCc3ccccc3-n3cccn3)nc(N[C@H]3CCCNC3)nc21 [Compound I-13, (S)-N6-(2-(1H-pyrazol-1-yl)benzyl)-9-isopropyl-N2-(piperidin-3-yl)-9H-purine-2,6-diamine]",100 to 500
9,"CCN(CC)C1CCN(c2nc(NCc3ccccc3-n3cccn3)c3ncn(C(C)C)c3n2)CC1 [Compound I-20, 2-[4-(diethylamino)-1-piperidyl]-9-isopropyl-N-[(2-pyrazol-1-ylphenyl)methyl]purin-6-amine]",< 100
10,"CC(C)n1cnc2c(NCc3ccccc3-n3cccn3)nc(N3CCC(O)(Cn4cc(N)cn4)CC3)nc21 [Compound I-31, 1-(6-((2-(1H-pyrazol-1-yl)benzyl)amino)-9-isopropyl-9H-purin-2-yl)-4-((4-amino-1H-pyrazol-1-yl)methyl)piperidin-4-ol]",100 to 500
11,"CC(C)n1cnc2c(NCc3c(F)cccc3-n3cccn3)nc(N3CCC(N)CC3)nc21 [Compound I-24, 2-(4-aminopiperidin-1-yl)-N-(2-fluoro-6-(1H-pyrazol-1-yl)benzyl)-9-isopropyl-9H-purin-6-amine hydrochloride]",< 100
12,"CC(C)n1cnc2c(NCc3ccccc3-n3cccn3)nc(N3CC[C@H](N)C3)nc21 [Compound I-9, (S)—N-(2-(1H-pyrazol-1-yl)benzyl)-2-(3-aminopyrrolidin-1-yl)-9-isopropyl-9H-purin-6-amine]",< 100
13,"CC(C)n1cnc2c(NCc3ccccc3-n3cccn3)nc(N3CCC(CO)CC3)nc21 [Compound I-40, (1-(6-((2-(1H-pyrazol-1-yl)benzyl)amino)-9-isopropyl-9H-purin-2-yl)piperidin-4-yl)methanol]",500 to 1000
14,"CC(C)n1cnc2c(NCc3ccccc3-n3cccn3)nc(NC(=O)C3CCNCC3)nc21 [Compound I-21, N-(6-((2-(1H-pyrazol-1-yl)benzyl)amino)-9-isopropyl-9H-purin-2-yl)piperidine-4-carboxamide]",> 1000
15,"CC(C)n1cnc2c(NCc3ccccc3-n3cccn3)nc(NCC3(O)CCNCC3)nc21 [Compound I-14, 4-(((6-((2-(1H-pyrazol-1-yl)benzyl)amino)-9-isopropyl-9H-purin-2-yl)amino)methyl)piperidin-4-ol trihydrochloride]",100 to 500
16,"CC(C)n1cnc2c(NCc3ccccc3-n3cccn3)nc(N3CCC(N)C3)nc21 (stereo not shown) [Compound I-36, N-(2-(1H-pyrazol-1-yl)benzyl)-2-(3-aminopyrrolidin-1-yl)-9-isopropyl-9H-purin-6-amine]",100 to 500
17,"NC1CCN(c2nc(NCc3ccccc3-n3cccn3)c3ncn(C4CCCC4)c3n2)CC1 [Compound I-25, N-(2-(1H-pyrazol-1-yl)benzyl)-2-(4-aminopiperidin-1-yl)-9-cyclopentyl-9H-purin-6-amine]",< 100
18,"CC(C)n1cnc2c(NCc3ccccc3-n3cccn3)nc(N3CCC(CN(C)C)CC3)nc21 [Compound I-32, N-(2-(1H-pyrazol-1-yl)benzyl)-2-(4-((dimethylamino)methyl)piperidin-1-yl)-9-isopropyl-9H-purin-6-amine]",100 to 500
19,"CC(C)n1cnc2c(NCc3ccccc3-n3ccc(CO)n3)nc(N3CCC(N)CC3)nc21 [Compound I-1, (1-(2-(((2-(4-aminopiperidin-1-yl)-9-isopropyl-9H-purin-6-yl)amino)methyl)phenyl)-1H-pyrazol-3-yl)methanol]",< 100
20,"CC(C)n1cnc2c(NCc3ccccc3-n3cccn3)nc(N3CCC(C4CCNCC4)CC3)nc21 [Compound I-5, N-(2-(1H-pyrazol-1-yl)benzyl)-2-([4,4′-bipiperidin]-1-yl)-9-isopropyl-9H-purin-6-amine hydrochloride]",100 to 500
21,"CC(C)n1cnc2c(NCc3ccccc3-n3cccn3)nc(N3CCC(O)(Cn4cc(C(F)(F)F)cn4)CC3)nc21 [Compound I-35, 1-(6-((2-(1H-pyrazol-1-yl)benzyl)amino)-9-isopropyl-9H-purin-2-yl)-4-((4-(trifluoromethyl)-1H-pyrazol-1-yl)methyl)piperidin-4-ol]",> 1000
22,"CC(C)n1cnc2c(NCc3ccccc3-n3ccc(C(C)(C)O)n3)nc(NC3CCNCC3)nc21 [Compound I-17, 2-(1-(2-(((9-isopropyl-2-(piperidin-4-ylamino)-9H-purin-6-yl)amino)methyl)phenyl)-1H-pyrazol-3-yl)propan-2-ol]",< 100
23,"CC(C)c1n[nH]c2c(NCc3ccccc3-n3cccn3)nc(NC3CCNCC3)nc12 [II-2, N7-(2-(1H-pyrazol-1-yl)benzyl)-3-isopropyl-N5-(piperidin-4-yl)-1H-pyrazolo[4,3-d]pyrimidine-5,7-diamine]",< 100
24,"CC(C)n1cnc2c(NCc3ccccc3-n3cccn3)nc(N3CCC(CN)CC3)nc21 [Compound I-41, N-(2-(1H-pyrazol-1-yl)benzyl)-2-(4-(aminomethyl)piperidin-1-yl)-9-isopropyl-9H-purin-6-amine]",100 to 500
25,"CC(C)n1cnc2c(NCc3ccccc3-n3cccn3)nc(N3CCC(N(C)C)CC3)nc21 [Compound I-26, N-(2-(1H-pyrazol-1-yl)benzyl)-2-(4-(dimethylamino)piperidin-1-yl)-9-isopropyl-9H-purin-6-amine]",< 100
26,"CC(C)n1cnc2c(NCc3ccccc3-n3cccn3)nc(N3CCC(C(N)=O)CC3)nc21 [Compound I-38, 1-(6-((2-(1H-pyrazol-1-yl)benzyl)amino)-9-isopropyl-9H-purin-2-yl)piperidine-4-carboxamide]",100 to 500
27,"CC(C)n1cnc2c(NCc3ccccc3-n3cccn3)nc(N3CCC(O)(CN(C)C)CC3)nc21 [Compound I-29, 1-(6-((2-(1H-pyrazol-1-yl)benzyl)amino)-9-isopropyl-9H-purin-2-yl)-4-((dimethylamino)methyl)piperidin-4-ol]",100 to 500
28,"CC(C)n1cnc2c(NCc3c(Cl)cccc3-n3ccc(C(C)(C)O)n3)nc(NC3CCNCC3)nc21 [Compound I-18, 2-[1-[3-chloro-2-[[[9-isopropyl-2-(4-piperidylamino)purin-6-yl]amino]methyl]phenyl]pyrazol-3-yl]propan-2-ol]",< 100
29,"CC(C)n1cnc2c(NCc3ccccc3-n3cccn3)nc(N3CCC(CN)C3)nc21 (stereo not shown) [Compound I-34, N-(2-(1H-pyrazol-1-yl)benzyl)-2-(3-(aminomethyl)pyrrolidin-1-yl)-9-isopropyl-9H-purin-6-amine]",100 to 500
30,"CC(C)c1n[nH]c2c(NCc3ccccc3-n3cccn3)nc(N3CCC(N)CC3)nc12 [II-1, N-(2-(1H-pyrazol-1-yl)benzyl)-5-(4-aminopiperidin-1-yl)-3-isopropyl-1H-pyrazolo[4,3-d]pyrimidin-7-amine hydrochloride]",< 100
